Common to all, as to assay: TGFα-shedding assay-based GPCR screening with chimeric Gα subunit proteins
What all share (assay type): cell-based

Assay [1] has as its target T1, 348 GPCRs (Homo sapiens, UniProt P30550).
T1 construct: expressed in transfected cells; host or cells: HEK293A
To be noted: 10µM, Favipiravir 100μM.

For assay [2], the target named is T2, 348 GPCRs (Homo sapiens, UniProt P34969).
T2 construct: expressed in transfected cells; host or cells: HEK293A
To be noted: 10µM, Favipiravir 100μM.

In assay [3] the target is T3, 348 GPCRs (Homo sapiens, UniProt P35410).
T3 construct: expressed in transfected cells; host or cells: HEK293A
T3 sequence (P35410 1-378): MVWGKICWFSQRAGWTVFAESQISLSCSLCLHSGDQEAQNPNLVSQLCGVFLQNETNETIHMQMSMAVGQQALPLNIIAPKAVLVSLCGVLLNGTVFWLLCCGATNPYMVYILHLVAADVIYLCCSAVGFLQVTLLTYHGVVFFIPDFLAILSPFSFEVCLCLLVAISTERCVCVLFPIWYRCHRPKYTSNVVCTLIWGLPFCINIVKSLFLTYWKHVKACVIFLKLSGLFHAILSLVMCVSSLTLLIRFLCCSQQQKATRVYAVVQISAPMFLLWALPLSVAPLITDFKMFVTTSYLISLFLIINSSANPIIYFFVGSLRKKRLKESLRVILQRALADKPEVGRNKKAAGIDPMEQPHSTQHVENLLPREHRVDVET

The target of assay [4] is T4, 348 GPCRs (Homo sapiens, UniProt P41180).
T4 construct: expressed in transfected cells; host or cells: HEK293A
T4 sequence (P41180 20-1078): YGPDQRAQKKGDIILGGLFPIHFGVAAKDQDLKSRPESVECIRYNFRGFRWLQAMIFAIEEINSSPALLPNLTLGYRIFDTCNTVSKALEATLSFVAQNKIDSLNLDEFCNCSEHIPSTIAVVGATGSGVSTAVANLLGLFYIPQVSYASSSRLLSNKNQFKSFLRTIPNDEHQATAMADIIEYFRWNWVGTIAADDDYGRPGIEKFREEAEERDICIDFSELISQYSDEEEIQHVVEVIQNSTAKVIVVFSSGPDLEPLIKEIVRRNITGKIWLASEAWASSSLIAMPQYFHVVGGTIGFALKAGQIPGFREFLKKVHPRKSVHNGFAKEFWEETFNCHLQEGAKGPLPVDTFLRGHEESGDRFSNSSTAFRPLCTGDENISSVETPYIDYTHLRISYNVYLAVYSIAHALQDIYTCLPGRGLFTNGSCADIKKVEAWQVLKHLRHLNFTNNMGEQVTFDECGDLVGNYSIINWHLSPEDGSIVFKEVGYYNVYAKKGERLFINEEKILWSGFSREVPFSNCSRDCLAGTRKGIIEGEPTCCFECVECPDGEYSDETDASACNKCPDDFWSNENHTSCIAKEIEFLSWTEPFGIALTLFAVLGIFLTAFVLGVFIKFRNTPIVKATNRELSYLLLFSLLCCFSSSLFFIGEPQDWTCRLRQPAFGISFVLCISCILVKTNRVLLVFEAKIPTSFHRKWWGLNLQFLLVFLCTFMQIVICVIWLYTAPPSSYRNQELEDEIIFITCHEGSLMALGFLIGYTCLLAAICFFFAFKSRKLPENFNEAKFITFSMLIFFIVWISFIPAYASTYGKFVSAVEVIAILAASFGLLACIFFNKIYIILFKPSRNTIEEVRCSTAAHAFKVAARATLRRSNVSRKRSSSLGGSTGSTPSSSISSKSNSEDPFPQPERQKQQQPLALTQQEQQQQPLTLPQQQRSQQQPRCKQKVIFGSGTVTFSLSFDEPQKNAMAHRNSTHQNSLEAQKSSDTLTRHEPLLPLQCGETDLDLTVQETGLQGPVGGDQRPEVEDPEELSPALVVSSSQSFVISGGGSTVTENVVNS
To be noted: 10µM, Favipiravir 100μM.

The target in assay [5] is T5, 348 GPCRs (Homo sapiens, UniProt P48145).
T5 construct: expressed in transfected cells; host or cells: HEK293A
T5 sequence (P48145 1-328): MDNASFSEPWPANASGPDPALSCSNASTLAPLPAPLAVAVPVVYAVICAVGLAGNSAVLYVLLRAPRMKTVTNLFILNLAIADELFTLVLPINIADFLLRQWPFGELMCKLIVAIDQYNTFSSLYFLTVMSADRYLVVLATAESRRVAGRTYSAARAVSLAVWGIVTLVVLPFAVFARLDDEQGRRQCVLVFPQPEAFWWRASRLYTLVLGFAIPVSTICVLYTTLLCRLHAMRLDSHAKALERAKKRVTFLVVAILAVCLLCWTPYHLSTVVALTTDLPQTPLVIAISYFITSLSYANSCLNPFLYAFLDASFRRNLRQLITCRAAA
Particulars: 10µM, Favipiravir 100μM.

Assay [6] addresses T6, 348 GPCRs (Homo sapiens, UniProt Q16538).
T6 construct: expressed in transfected cells; host or cells: HEK293A
To be noted: 10µM, Favipiravir 100μM.

Assay [7] concerns the target T7, 348 GPCRs (Homo sapiens, UniProt Q16602).
T7 construct: expressed in transfected cells; host or cells: HEK293A
Particulars: 10µM, Favipiravir 100μM.

Assay [8] deals with T8, 348 GPCRs (Homo sapiens, UniProt Q96RI0).
T8 construct: expressed in transfected cells; host or cells: HEK293A
T8 sequence (Q96RI0 18-385): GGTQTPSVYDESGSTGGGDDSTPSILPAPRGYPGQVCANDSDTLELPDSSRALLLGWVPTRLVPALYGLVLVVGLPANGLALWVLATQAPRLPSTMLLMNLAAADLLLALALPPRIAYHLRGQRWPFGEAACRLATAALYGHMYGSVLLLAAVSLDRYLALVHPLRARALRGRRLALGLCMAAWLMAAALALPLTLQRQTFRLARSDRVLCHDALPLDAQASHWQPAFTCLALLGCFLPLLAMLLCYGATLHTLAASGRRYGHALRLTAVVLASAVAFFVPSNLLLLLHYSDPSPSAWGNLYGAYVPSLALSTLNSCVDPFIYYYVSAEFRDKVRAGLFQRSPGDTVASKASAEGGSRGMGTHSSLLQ
To be noted: 10µM, Favipiravir 100μM.

Setting [9] is: read-out: % GPCR activation compared to TPA, GRPR (gastrin-releasing peptide receptor).
Where [10] appears, read: read-out: % GPCR activation compared to TPA, 5-HT7 (5-hydroxytryptamine receptor 7).
[11] abbreviates: read-out: % GPCR activation compared to TPA, GPCR MAS1L (MAS1 oncogene-like).
[12] abbreviates: read-out: % GPCR activation compared to TPA, CASR (calcium sensing receptor).
The mark [13] stands for this setting: read-out: % GPCR activation compared to TPA, NPBWR1 (neuropeptides B and W receptor 1).
Setting [14] is: read-out: % GPCR activation compared to TPA, GPR162 (G Protein-Coupled Receptor 162).
Where [15] appears, read: read-out: % GPCR activation compared to TPA, CALCRL (calcitonin receptor-like receptor).
Where [16] appears, read: read-out: % GPCR activation compared to TPA, F2RL3 (coagulation factor II (thrombin) receptor-like 3).
[17] abbreviates: GRPR (gastrin-releasing peptide receptor), read-out: % GPCR activation compared to TPA.
[18] abbreviates: 5-HT7 (5-hydroxytryptamine receptor 7), read-out: % GPCR activation compared to TPA.
Where [19] appears, read: CASR (calcium sensing receptor), read-out: % GPCR activation compared to TPA.
The mark [20] stands for this setting: NPBWR1 (neuropeptides B and W receptor 1), read-out: % GPCR activation compared to TPA.
[21] abbreviates: GPR162 (G Protein-Coupled Receptor 162), read-out: % GPCR activation compared to TPA.
[22] abbreviates: CALCRL (calcitonin receptor-like receptor), read-out: % GPCR activation compared to TPA.
The mark [23] stands for this setting: F2RL3 (coagulation factor II (thrombin) receptor-like 3), read-out: % GPCR activation compared to TPA.
The mark [24] stands for this setting: GPCR MAS1L (MAS1 oncogene-like), read-out: % GPCR activation compared to TPA.

In article PMC10175918 (Communications Biology, 2023) one finds activation data, which are given here for five compounds.

Where two headings read alike, the source gives them in different places.

T1 sequence (P30550 whole entry): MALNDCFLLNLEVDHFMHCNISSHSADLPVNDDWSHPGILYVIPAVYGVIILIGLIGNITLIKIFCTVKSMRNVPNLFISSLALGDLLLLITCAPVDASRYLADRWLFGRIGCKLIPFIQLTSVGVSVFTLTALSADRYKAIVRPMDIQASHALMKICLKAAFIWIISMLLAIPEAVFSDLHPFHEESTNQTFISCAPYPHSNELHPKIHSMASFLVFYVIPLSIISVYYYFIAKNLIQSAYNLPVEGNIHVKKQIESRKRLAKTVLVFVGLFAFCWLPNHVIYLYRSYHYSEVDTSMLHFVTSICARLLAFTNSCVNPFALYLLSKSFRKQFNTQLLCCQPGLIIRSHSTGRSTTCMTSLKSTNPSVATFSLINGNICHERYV
T7 sequence (Q16602 23-461): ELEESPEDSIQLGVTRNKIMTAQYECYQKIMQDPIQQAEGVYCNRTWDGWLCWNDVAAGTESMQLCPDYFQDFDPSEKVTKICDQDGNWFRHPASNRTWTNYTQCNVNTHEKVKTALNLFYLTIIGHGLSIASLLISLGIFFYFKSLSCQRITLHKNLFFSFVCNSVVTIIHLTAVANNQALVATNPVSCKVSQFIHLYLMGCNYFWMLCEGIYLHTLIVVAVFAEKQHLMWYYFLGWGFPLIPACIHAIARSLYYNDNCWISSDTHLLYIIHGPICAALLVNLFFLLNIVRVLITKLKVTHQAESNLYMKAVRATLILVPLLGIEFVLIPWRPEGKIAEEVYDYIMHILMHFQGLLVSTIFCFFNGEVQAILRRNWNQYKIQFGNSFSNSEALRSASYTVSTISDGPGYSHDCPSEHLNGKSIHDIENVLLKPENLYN
T6 sequence (Q16538 whole entry): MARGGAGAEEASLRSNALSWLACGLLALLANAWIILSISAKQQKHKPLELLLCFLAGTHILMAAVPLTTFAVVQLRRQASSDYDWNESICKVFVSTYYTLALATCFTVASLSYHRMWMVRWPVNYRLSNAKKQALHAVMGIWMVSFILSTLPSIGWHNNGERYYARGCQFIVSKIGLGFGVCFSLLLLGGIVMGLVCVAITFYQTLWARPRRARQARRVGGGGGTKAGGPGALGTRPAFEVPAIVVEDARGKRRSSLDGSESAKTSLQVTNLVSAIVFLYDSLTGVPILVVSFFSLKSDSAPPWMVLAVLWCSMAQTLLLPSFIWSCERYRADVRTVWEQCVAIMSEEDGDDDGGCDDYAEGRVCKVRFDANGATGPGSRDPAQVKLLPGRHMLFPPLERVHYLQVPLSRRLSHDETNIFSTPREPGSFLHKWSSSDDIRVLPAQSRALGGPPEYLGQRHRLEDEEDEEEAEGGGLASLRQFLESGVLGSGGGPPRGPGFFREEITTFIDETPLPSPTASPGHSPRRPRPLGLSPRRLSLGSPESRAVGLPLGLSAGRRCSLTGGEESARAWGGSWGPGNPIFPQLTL
T2 sequence (P34969 whole entry): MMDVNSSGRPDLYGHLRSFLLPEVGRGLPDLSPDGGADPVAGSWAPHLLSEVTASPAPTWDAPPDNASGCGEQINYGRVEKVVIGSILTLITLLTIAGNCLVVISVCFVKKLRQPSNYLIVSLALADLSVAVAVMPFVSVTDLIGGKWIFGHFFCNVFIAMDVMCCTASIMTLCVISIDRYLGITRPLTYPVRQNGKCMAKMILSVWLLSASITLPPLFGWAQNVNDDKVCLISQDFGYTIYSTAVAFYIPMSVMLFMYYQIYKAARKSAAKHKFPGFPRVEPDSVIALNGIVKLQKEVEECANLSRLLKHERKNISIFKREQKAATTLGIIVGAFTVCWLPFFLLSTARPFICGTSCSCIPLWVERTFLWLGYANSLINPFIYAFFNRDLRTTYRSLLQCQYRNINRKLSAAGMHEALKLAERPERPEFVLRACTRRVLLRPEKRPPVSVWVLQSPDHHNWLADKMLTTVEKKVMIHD

For the compound `CC(C)OC(=O)[C@H](C)N[P@](=O)(OC[C@H]1O[C@@H](n2ccc(=O)[nH]c2=O)[C@](C)(F)[C@@H]1O)Oc1ccccc1` [sofosbuvir], the activation at 10 µM on 348 GPCRs [1] (setting [9]) is -1.24%; at 348 GPCRs [3] (setting [11]), 0.457%; at 348 GPCRs [5] (setting [13]), -6.08%; at 348 GPCRs [6] (setting [14]), 0.48%; at 348 GPCRs [8] (setting [16]) it was 1.49%. For the same compound, the activation at 100 µM at 348 GPCRs [2] (setting [10]) is -1.41%; on 348 GPCRs [4] (setting [12]), -3.31%; at 348 GPCRs [7] (setting [15]) it was -3.04%.
Take `NC(=O)c1nc(F)cnc1O` [favipiravir, 6-fluoro-3-hydroxy-2-pyrazinecarboxamide]: the activation at 10 µM was -1.14% at 348 GPCRs [1] (setting [17]), -3.5% on 348 GPCRs [5] (setting [20]), -1.13% on 348 GPCRs [6] (setting [21]) and -2.75% at 348 GPCRs [8] (setting [23]). Moreover, the activation at 100 µM was 0.723% at 348 GPCRs [2] (setting [18]); -0.101% on 348 GPCRs [3] (GPCR MAS1L (MAS1 oncogene-like), 100μM, read-out: % GPCR activation compared to TPA); 0.748% on 348 GPCRs [4] (setting [19]); -7.08% at 348 GPCRs [7] (setting [22]).
On to `CCC(CC)COC(=O)[C@H](C)N[P@](=O)(OC[C@H]1O[C@@](C#N)(c2ccc3c(N)ncnn23)[C@H](O)[C@@H]1O)Oc1ccccc1` [remdesivir], for which the activation at 10 µM on 348 GPCRs [1] (setting [9]) is -2.02%; at 348 GPCRs [3] (setting [11]), 0.269%; on 348 GPCRs [5] (setting [13]), -1.26%; at 348 GPCRs [6] (setting [14]), 2.55%; on 348 GPCRs [8] (setting [16]) it was -0.777%. Besides, the activation at 100 µM on 348 GPCRs [2] (setting [10]) was 1.8%; at 348 GPCRs [4] (setting [12]), 4.48%; on 348 GPCRs [7] (setting [15]) it was 4.11%.
`N#C[C@@]1(c2ccc3c(N)ncnn23)O[C@H](CO)[C@@H](O)[C@H]1O` [GS441524]: the activation at 10 µM on 348 GPCRs [1] (setting [17]) is -1.56%; at 348 GPCRs [3] (setting [24]), 3.15%; on 348 GPCRs [5] (setting [20]) it was -1.75%; at 348 GPCRs [6] (setting [21]), -0.758%; at 348 GPCRs [8] (setting [23]), 0.403%. Further, the activation at 100 µM on 348 GPCRs [2] (setting [18]) is 1.1%; at 348 GPCRs [4] (setting [19]), 1.55%; at 348 GPCRs [7] (setting [22]), 0.376%.
As for `CC(C)C(=O)OC[C@H]1O[C@@H](n2ccc(NO)nc2=O)[C@H](O)[C@@H]1O` [molnupiravir], the activation at 10 µM on 348 GPCRs [1] (setting [17]) is -3.58%; at 348 GPCRs [3] (setting [24]), 0.3%; at 348 GPCRs [5] (setting [20]), -7.02%; on 348 GPCRs [6] (setting [21]), -1.64%; on 348 GPCRs [8] (setting [23]), 2.35%. Besides, the activation at 100 µM at 348 GPCRs [2] (setting [18]) is -0.625%; on 348 GPCRs [4] (setting [19]), -0.137%; at 348 GPCRs [7] (setting [22]) it was -2.18%.
